Test results: patent US12178845B2, “Methods and compositions relating to the treatment of tumors” (THE GENERAL HOSPITAL CORPORATION, priority 2016, dated 2024)
Peptide text beside a SMILES is read from it. * marks the point of attachment. Cbz = O=C(OCc1ccccc1)*; CH2F = FC*

Tests used:
[1] = test system: ASC in HEI-193 cell line; assay: Demethylation of ASC CpG island, ASC expression by RT-PCR; format: cell-based, human
Description: The cultured cells were treated with (5azadeoxycytindine 0.5, 1 or 2.5 uM) or not treated (0) for 3 days.
Real-time quantitative PCR analyses. RNA isolation from tissue samples was conducted with TRIzol™ reagent according to the manufacturer's instructions (Qiagen, USA) and transcribed into cDNA using superscript VILO™ cDNA synthesis kit (Invitrogen, USA). Taqman™ real-time PCR was carried out using RealPlex MasterCycler™ (eppendorf, USA). […] Taqman probes were purchased from life technologies, USA.

[2] = test system: HEI-193 cells; assay: In vitro apoptosis staining (TACS 2 TdT-DAB); format: cell-based, human; conditions: HEI-193 transfected with pAAV-CBA-hASC
Description: To determine whether the ASC/TMS1-mediated growth inhibition was the result of caspases induced apoptosis, in vitro apoptosis staining was performed using TACS 2 TdT-DAB In situ Apoptosis Detection kit (Trevigen).
Apoptosis assay. In-vitro DNA fragmentation of apoptotic cells was assessed TACS® 2 TdT-DAB in Situ Apoptosis Detection Kit. In brief, HEI-193 cells on the coated cover glass and transfected with dsAAV-CBA-ASC or dsAAV-CBA-GFP. Fragmented DNA were visualized with diaminobenzidine (DAB) and viewed by light microscope. In-vivo apoptosis study was assessed using the same kit on fresh frozen nerves that were sliced to 15 um thin sections using cryostat and fixed in 3.7% formaldehyde.

[3] = test system: 08031-9 cells; assay: In vitro apoptotic body staining; format: cell-based, mouse; conditions: 08031-9 transfected with pAAV-CBA-hASC
[4] = test system: HEI-193 human schwannoma cell line; conditions: HEI193 cells transfected with pAAV-CBA-hASC
Description: For all cell types, growth media were supplemented with 10% fetal bovine serum (FBS; Sigma-Aldrich) and 1% penicillin-streptomycin (Cellgro, Herndon, VA) and cells were maintained at 37° C. in a humidified atmosphere of 5% CO2 and 95% air. […] For transfections in 24-well format, 100,000 cells were seeded 24 hours prior to transfection. 1 μl of liofectamine 2000 (Invitrogen, USA) was used for every 500 ng of transfected plasmid in FBS free medium (Optimem, Invitrogen, USA). The DNA/Lipofectamine mix was incubated at room temperature for 30 minutes before spread over the cells and left for 5-6 hours then replaced by fresh medium. The amount of plasmid/lipofectamine was scaled up according to the plate format used.
Cell viability and toxicity assay. The Cell Titer-Glo™ luminescent cell viability assay (Promega, Madison, WI) was used to determine the number of viable cells in culture on the basis of quantitation of ATP levels, an indicator of metabolically active cells. […] The luminescence was measured with a luminometer (Dynex Technologies, Chantilly, VA). Cell death was measured by the LDH assay using CytoTox 96 Non-Radioactive Cytotoxicity Assay kit (Promega) according to the manufacturer's instructions.

Compound | ASC promoter methylation [1] | ASC expression (RT-PCR, normalized to β-actin) ([1]; 0.5, 1 or 2.5 uM for 3 days, ASC-negative HEI-193) | apoptosis in presence of caspase inhibitor [2] | apoptosis in presence of caspase inhibitor ([2]; listed as ZDEVDFMK) | apoptosis in presence of caspase inhibitor ([2]; listed as caspase-3 inhibitor) | apoptosis in presence of caspase inhibitor [3] | LDH release cytotoxicity in presence of caspase inhibitor [4] | apoptosis in presence of caspase inhibitor ([2]; listed as ZVADFMK) | apoptosis in presence of caspase inhibitor ([2]; listed as pan-caspase inhibitor)
Nc1ncn([C@H]2C[C@H](O)[C@@H](CO)O2)c(=O)n1 [5azadeoxycytidine] | reversible | restores expression |  |  |  |  |  |  | 
COC(=O)CC[C@H](NC(=O)[C@H](CC(=O)OC)NC(=O)OCc1ccccc1)C(=O)N[C@H](C(=O)N[C@@H](CC(=O)OC)C(=O)CF)C(C)C [ZDEVD-FMK] |  |  | no apoptosis | inhibit | abolished | abolished | inhibited |  | 
COC(=O)C[C@H](NC(=O)[C@H](C)NC(=O)[C@@H](NC(=O)OCc1ccccc1)C(C)C)C(=O)CF [ZVAD-FMK] (Cbz-Val-Ala-Asp(OMe)-CH2F) |  |  | no apoptosis |  |  | abolished | inhibited | inhibit | abolished
